This note sets out measurements from patent US20250296963A1, “PEPTIDE HAVING ANTIMICROBIAL ACTIVITY” (priority 2022, published 2025).

Format in all cases: cell-based
One experiment relates to C. albicans. In words: Peptide stability in bodily fluids (sheep blood, urine), MIC against C. albicans. The note with it: Candida albicans, read-out: Minimal inhibitory concentration. Here is the method: In vitro experiments were conducted to test the behavior of the peptides as disclosed herein in blood, against C. albicans. C. albicans isolates from human blood were used (DSMZ 6569). The peptide according to the SEQ ID N° 1 was adjusted to a concentration of 1 mg/ml and mixed with sheep blood in equal parts. This mixture was incubated overnight at 30° C. To remove solid parts of the blood, the mixture was centrifuged and the obtained plasma supernatant was used for MICs.
In vitro experiments were conducted to test the behavior of the peptides as disclosed herein in urine, against C. albicans. The peptide according to the SEQ ID N° 1 was adjusted to a concentration of 1 mg/ml and mixed with synthetic urine or human urine in equal parts. These mixtures were incubated overnight at 30° C. To remove solid parts of the urine, the mixture was centrifuged and the obtained supernatant was used for MICs.

The next experiment deals with Sclerotinia sclerotiorum. In words: microbe, parasite or virus in culture. Here is the method:
(§1) The antimicrobial potential of the peptides described herein was compared with the activity of two other AMPs, TcAMP1 and TcAMP2 as discussed in WO1998027805, and antibiotics or fungicides. Comparative MIC assays were carried out against several bacterial and fungal species (Table 1).
(§2) Peptides according to SEQ ID N° 1, SEQ ID N° 2, SEQ ID N° 4, SEQ ID N° 6, and SEQ ID N° 7 were serially diluted in order to create a concentration sequence ranging from 0.39 μg/ml to […].
(§3) Pantoea, Staphylococcus, and Listeria were cultured in Trypticase Soy Broth (TSY) medium consisting of 1.7% casein peptone, 0.3% soy peptone, 0.25% glucose, 0.5% NaCl, 0.25% K2HPO4 and optionally 1.5% agar. Candida cells were cultured in Yeast Extract Peptone Dextrose (YPD) broth medium consisting of 1% yeast extract, 2% peptone, 2% glucose, and optionally 2% agar. Ceratocystis, Botrytis, Leptosphaeria, Mycosphaerella, Sclerotinia, and Verticillium were cultured in Potato Dextrose Agar (PDA) medium consisting of 2.4% Difco pre-mix broth and optionally 1.5% agar.
(§4) For the MIC assay bacteria and fungi were grown on agar plates with their respective media. Pre-cultures were prepared by inoculating either single bacterial colonies or small pieces of fungi in 5 ml of the respective liquid medium. The optical density (OD) at 600 nm was measured after one to five days and adjusted to an OD600 of 1. This cell suspension was used to prepare 1:500 dilutions, corresponding to approximately 2×10^6 microbial cells per ml.
(§5) To evaluate MICs, 96-well plates were prepared with the test antimicrobial peptides. Each well contained 100 μl microbial cell culture, 90 μl culture medium, and 10 μl peptide or control at the corresponding dilution. The plates were incubated overnight (ON) at the optimal growth temperature for each tested organism (Table 1). Results were visually evaluated and MICs determined based on growth or no-growth.
(§6) MIC assays were conducted in at least two independent replicates and with different peptide starting concentrations.

In another experiment the test system is Candida albicans. The experiment in a line: microbe, parasite or virus in culture. As for the experimental part: as §1, §2, §3, §4, §5, §6
A further experiment relates to Verticillium dahliae. In words: microbe, parasite or virus in culture. Here is the method: as §1, §2, §3, §4, §5, §6
A further experiment concerns Botrytis cinerea. In words: microbe, parasite or virus in culture. Here is the method: as §1, §2, §3, §4, §5, §6
In a further experiment the test system is Leptosphaeria maculans. The experiment in a line: microbe, parasite or virus in culture. As for the experimental part: as §1, §2, §3, §4, §5, §6
The next experiment relates to Mycosphaerella pinodes. The experiment in a line: microbe, parasite or virus in culture. As for the experimental part: as §1, §2, §3, §4, §5, §6
Another experiment deals with Ceratosystis paradoxa. The experiment in a line: organism not typed. Here is the method: as §1, §2, §3, §4, §5, §6
Experiment [1] deals with Staphylococcus aureus MRSA. The experiment in a line: microbe, parasite or virus in culture. As for the experimental part: as §1, §2, §3, §4, §5, §6
Experiment [2] concerns Listeria monocytogenes. In words: microbe, parasite or virus in culture. Here is the method: as §1, §2, §3, §4, §5, §6
In experiment [3] the test system is Listeria monocytogenes. In words: Cow milk assay, MIC against Listeria monocytogenes. The note with it: control, milk-free (and reference drug), read-out: Minimal inhibitory concentration. As for the experimental part: In vitro experiments were conducted to test the behavior of the peptides as disclosed herein in 3.5% fat cow milk, against Listeria monocytogenes. The peptide according to the SEQ ID N° 1 was adjusted to a concentration of 1 mg/ml and mixed with cow milk in equal parts. This mixture was incubated overnight at 37° C. To remove solid parts of the milk, the mixture was centrifuged and the obtained supernatant was used for MICs.

The subject of a further experiment is Pantoea agglomerans. As for the experimental part:
as §1, §2, §3, §4, §5, §6

Another experiment deals with E. coli. In words: MIC assay, E. coli. As for the experimental part:
as §1, §2, §4, §5, §6

Values after ≈ are worked out from the molar mass of the structure shown. Read-outs that look alike come from different tables or passages of the source. Where no end group is shown, it is not given here. Some results are limits rather than exact numbers.

Take `CC[C@H](C)C[C@H](C)CCCCCCCCC(=O)N[C@H]1C[C@@H](O)[C@@H](NCCN)NC(=O)[C@@H]2[C@@H](O)CCN2C(=O)[C@H]([C@H](O)CCN)NC(=O)[C@H]([C@H](O)[C@@H](O)c2ccc(O)cc2)NC(=O)[C@@H]2C[C@@H](O)CN2C(=O)[C@H]([C@@H](C)O)NC1=O` [Caspofungin, caspofungin]: the MIC in the experiment on C. albicans is 0.5 µg/mL (≈ 0.457 µM).
In the case of `Clc1ccccc1C(c1ccccc1)(c1ccccc1)n1ccnc1` [Clotrimazole], the MIC in the experiment on Sclerotinia sclerotiorum (Sclerotinia sclerotiorum SF 79, PDA, 18° C., overnight, read-out: Minimal inhibitory concentration) was 25 µg/mL (≈ 72.5 µM); in the experiment with Candida albicans (DSM1386, Candida albicans DSM 1386, YPD, 30° C., overnight, read-out: Minimal inhibitory concentration), 3.1 µg/mL (≈ 8.99 µM); in the experiment on Verticillium dahliae (Verticillium dahliae SF 76, PDA, 28° C., overnight, read-out: Minimal inhibitory concentration), 1.56 µg/mL (≈ 4.52 µM); in the experiment with Botrytis cinerea (DSMZ877, Botrytis cinerea DSMZ 877, PDA, 24° C., overnight, read-out: Minimal inhibitory concentration), 6.25 µg/mL (≈ 18.1 µM); in the experiment with Leptosphaeria maculans (Plenodomus lingam, Leptosphaeria maculans SF 70, PDA, 18° C., overnight, read-out: Minimal inhibitory concentration), 0.4 µg/mL (≈ 1.16 µM); in the experiment with Mycosphaerella pinodes (Didymella pinodes, DSMZ62763, Mycosphaerella pinodes DSMZ 62763, PDA, 30° C., overnight, read-out: Minimal inhibitory concentration), 3.1 µg/mL (≈ 8.99 µM). Besides, the MIC in the experiment with Ceratosystis paradoxa (Ceratosystis paradoxa DSMZ 63054, PDA, 18° C., overnight, read-out: Minimal inhibitory concentration) was determined as 0.4 µg/mL (≈ 1.16 µM).
Consider `[H]/N=C(/N)N[C@H]1[C@H](O)[C@@H](O)[C@H](O[C@@H]2O[C@@H](C)[C@](O)(C=O)[C@H]2O[C@@H]2O[C@@H](CO)[C@H](O)[C@@H](O)[C@@H]2NC)[C@@H](N/C(N)=N\[H])[C@@H]1O` [Streptomycin], for which the MIC in experiment [1] (DSM 11729 / MRSA, Staphylococcus aureus MRSA DSM 11729, TSY, 37° C., overnight, read-out: Minimal inhibitory concentration) is over 125 µg/mL; in the experiment with Listeria monocytogenes [2] (DSM102976, Listeria monocytogenes DSM 102976, TSY, 37° C., overnight, read-out: Minimal inhibitory concentration), 7.8 µg/mL (≈ 13.4 µM).
For `CN(C)[C@@H]1C(O)=C(C(N)=O)C(=O)[C@@]2(O)C(O)=C3C(=O)c4c(O)cccc4[C@@](C)(O)[C@H]3C[C@@H]12` [Tetracycline, tetracycline], in the experiment with Listeria monocytogenes [3], the MIC amounted to 1.6 µg/mL (≈ 3.6 µM).
Gentamycin: the Minimal inhibitory concentration in the experiment on Pantoea agglomerans (Pantoea agglomerans JUB-CC-3253, TSY, 37° C., overnight) is 1.56 µg/mL; in [1] (Staphylococcus aureus MRSA DSM 11729, TSY, 37° C., overnight), 0.8 µg/mL; in the experiment with Listeria monocytogenes [2] (Listeria monocytogenes DSM 102976, TSY, 37° C., overnight), 0.4 µg/mL; in the experiment with E. coli it was 1 µg/mL.
With “LQRQYQQCQGRCQEQQQGQREQQQCQRKCWEQYKEQERGEHENYHNHKKNRSEEEEGQQR (cysteines drawn unpaired) [SEQ ID No 7]”, the Minimal inhibitory concentration in the experiment on Pantoea agglomerans came to 9.45 µg/mL; in the experiment on Sclerotinia sclerotiorum, 23.5 µg/mL; in experiment [1], 13.6 µg/mL; with Candida albicans, 12.75 µg/mL; with Verticillium dahliae it was 12.7 µg/mL; in the experiment with Listeria monocytogenes [2], 13.6 µg/mL. The Minimal inhibitory concentration in the experiment with Botrytis cinerea was 12.75 µg/mL; in the experiment on Leptosphaeria maculans, 9.4 µg/mL; with Mycosphaerella pinodes, 10.68 µg/mL; in the experiment on Ceratosystis paradoxa, 4.7 µg/mL.
In the case of “YERDPRQQYEQCQRRCESEATEEREQEQCEQRCEREYKEQQRQQEEE (cysteines drawn unpaired) [SEQ ID No 6]”, the Minimal inhibitory concentration in the experiment on Pantoea agglomerans was determined as 7.9 µg/mL; in the experiment on Sclerotinia sclerotiorum it was 27.2 µg/mL; in [1], 13 µg/mL; in the experiment with Candida albicans, 13.1 µg/mL; in the experiment with Verticillium dahliae, 14.5 µg/mL; with Listeria monocytogenes [2] it was 3.25 µg/mL. Moreover, the Minimal inhibitory concentration with Botrytis cinerea was found to be 14.5 µg/mL; in the experiment with Leptosphaeria maculans it was 37.9 µg/mL; in the experiment on Mycosphaerella pinodes it was 13.12 µg/mL; with Ceratosystis paradoxa, 4.8 µg/mL.
